Measured values reported in US9388162B2, “Substituted morphinans and the use thereof” (Purdue Pharma L.P., priority 2012, dated 2016).

Experiments:
μ-opioid receptors [1] = biological target: T1, μ-opioid receptors (Homo sapiens (Human), UniProt P35372); experiment: μ-opioid receptor [35S]GTPγS functional assay, HEK-293 cells; format: biochemical; conditions: μ GTP; for EC50: read-out: Activity Response μ EC50 (nM) [mean ± SEM]; for Emax: relative to DAMGO, read-out: Activity Response μ Emax (%)
Protocol: [^35S]GTPγS functional assays were conducted using freshly thawed μ-receptor membranes prepared from a cell line expressing recombinant μ opioid receptor in a HEK-293, CHO or U-2 OS cell background or purchased from a commercial source (Perkin Elmer, Shelton, Conn.; or DiscovRx, Fremont, Calif.). Assay reactions were prepared by sequentially adding the following reagents to binding buffer (100 mM NaCl, 10 mM MgCl2, 20 mM HEPES, pH 7.4) on ice (final concentrations indicated): membrane protein (0.026 mg/mL), saponin ([…]), GDP ([…]) and [^35S]GTPγS (0.20 nM; Perkin Elmer, Shelton, Conn.). The prepared membrane solution (190 μl/well) was transferred to 96-shallow well polypropylene plates containing 10 μl of 20× concentrated stock solutions of the agonist [D-Ala^2, N-methyl-Phe^4 Gly-ol^5]-enkephalin (DAMGO) prepared in dimethyl sulfoxide (DMSO). Plates were incubated for 30 min at about 25° C. with shaking. Reactions were terminated by rapid filtration onto 96-well Unifilter GF/B filter plates (Perkin Elmer, Shelton, Conn.) using a 96-well tissue harvester (Perkin Elmer, Shelton, Conn.) followed by three filtration washes with 200 μl of ice-cold wash buffer (10 mM NaH2PO4, 10 mM Na2HPO4, pH 7.4). Filter plates were subsequently dried at 50° C. for 2-3 hours. BetaScint scintillation cocktail (Perkin Elmer, Shelton, Conn.) was added (50 μl/well) and plates were counted using a Packard Top-Count for 1 min/well. Data were analyzed using the sigmoidal dose-response curve fitting functions in GraphPad PRISM v. 3.0, or an in-house function for non-linear, sigmoidal dose-response curve-fitting.
μ GTP EC50 is the concentration of a compound providing 50% of the maximal response for the compound at a μ-opioid receptor.
μ GTP Emax (%) is the maximal effect elicited by a compound relative to the effect elicited by DAMGO, a standard μ agonist. Generally, the μ GTP Emax (%) value measures the efficacy of a compound to treat or prevent pain or other Conditions.
(§1) The following tables provide results on the efficacy of binding and activity response of exemplified Compounds of the Invention at the μ- and κ-opioid receptors. In TABLE 3, binding affinity of certain Compounds of the Invention to the μ- and κ-opioid receptors was determined as described above. In TABLE 4, activity response of certain Compounds of the Invention to the μ- and κ-opioid receptors was determined as described above for functional assays using HEK-293 cells. In TABLE 5, activity response of certain Compounds of the Invention to the μ- and κ-opioid receptors was determined as described above using U-2 OS cells.

κ opioid receptor [2] = biological target: T2, κ opioid receptor (Homo sapiens (Human), UniProt P41145); experiment: κ-opioid receptor [35S]GTPγS functional assay, HEK-293 cells; format: biochemical; conditions: κ GTP; for EC50: read-out: Activity Response κ EC50 (nM) [mean ± SEM]; for Emax: relative to U69,593, read-out: Activity Response κ Emax (%)
Protocol: (§2) Membranes from HEK-293 cells, CHO or U-2 OS cells expressing the recombinant human kappa opioid receptor (κ) were prepared by lysing cells in ice cold hypotonic buffer (2.5 mM MgCl2, 50 mM HEPES, pH 7.4) (10 mL/10 cm dish) followed by homogenization with a tissue grinder/Teflon pestle. Membranes were collected by centrifugation at 30,000×g for 15 min at 4° C. and pellets were resuspended in hypotonic buffer to a final concentration of 1-3 mg/mL. Protein concentrations were determined using the BioRad protein assay reagent with bovine serum albumen as standard. Aliquots of κ receptor membranes were stored at −80° C.
Functional [^35S]GTPγS binding assays were conducted as follows. κ opioid receptor membrane solution was prepared by sequentially adding final concentrations of 0.026 μg/μl κ membrane protein (in-house), 10 μg/mL saponin, 3 μM GDP and 0.20 nM [^35S]GTPγS to binding buffer (100 mM NaCl, 10 mM MgCl2, 20 mM HEPES, pH 7.4) on ice. The prepared membrane solution (190 μl/well) was transferred to 96-shallow well polypropylene plates containing 10 μl of 20× concentrated stock solutions of agonist prepared in DMSO. Plates were incubated for 30 min at a temperature of about 25° C. with shaking. Reactions were terminated by rapid filtration onto 96-well Unifilter GF/B filter plates (Perkin Elmer, Shelton, Conn.) using a 96-well tissue harvester (Packard) and followed by three filtration washes with 200 μl ice-cold binding buffer (10 mM NaH2PO4, 10 mM Na2HPO4, pH 7.4). Filter plates were subsequently dried at 50° C. for 2-3 hours. Fifty μl/well scintillation cocktail (Perkin Elmer, Shelton, Conn.) was added and plates were counted in a Packard Top-Count for 1 min/well.
κ GTP EC50 is the concentration of a compound providing 50% of the maximal response for the compound at a κ receptor.
κ GTP Emax (%) is the maximal effect elicited by a compound relative to the effect elicited by U69,593.
as §1, with “In” for “The following tables provide results on the efficacy of binding and activity response of exemplified Compounds of the Invention at the μ- and κ-opioid receptors. In”

[3] = biological target: recombinant human kappa opioid receptor (κ) (Homo sapiens (Human), UniProt P41145); experiment: κ-opioid receptor radioligand dose displacement binding assay ([3H]-U69,593); conditions: mean ± SEM, read-out: Binding Affinity Opioid Receptor Ki (nM) [mean ± SEM] κ
Protocol: as §2
Radioligand dose displacement assays used 0.4 nM [^3H]-U69,593 (GE Healthcare, Piscataway, N.J.; 40 Ci/mmole) with 15 μg membrane protein (recombinant κ opioid receptor expressed in HEK 293 cells; in-house prep) in a final volume of 200 μl binding buffer (5% DMSO, 50 mM Trizma base, pH 7.4). Non-specific binding was determined in the presence of 10 μM unlabeled naloxone or U69,593. All reactions were performed in 96-well polypropylene plates for 1 hour at a temperature of about 25° C. Binding reactions were terminated by rapid filtration onto 96-well Unifilter GF/C filter plates (Perkin Elmer, Shelton, Conn.) presoaked in 0.5% polyethylenimine (Sigma). Harvesting was performed using a 96-well tissue harvester (Perkin Elmer, Shelton, Conn.) followed by five filtration washes with 200 μl ice-cold binding buffer. Filter plates were subsequently dried at 50° C. for 1-2 hours. Fifty μl/well scintillation cocktail (Perkin Elmer, Shelton, Conn.) was added and plates were counted in a Packard Top-Count for 1 min/well.
as §1

μ-opioid receptors [4] = biological target: T1, μ-opioid receptors; experiment: μ-opioid receptor radioligand dose-displacement binding assay ([3H]-diprenorphine); conditions: mean ± SEM, read-out: Binding Affinity Opioid Receptor Ki (nM) [mean ± SEM] μ
Protocol: Radioligand dose-displacement binding assays for μ-opioid receptors used 0.3 nM [^3H]-diprenorphine (Perkin Elmer, Shelton, Conn.), with […] membrane protein/well in a final volume of 500 μl binding buffer (10 mM MgCl2, 1 mM EDTA, 5% DMSO, 50 mM HEPES, pH 7.4). Reactions were carried out in the absence or presence of increasing concentrations of unlabeled naloxone. All reactions were conducted in 96-deep well polypropylene plates for 2 hours at room temperature. Binding reactions were terminated by rapid filtration onto 96-well Unifilter GF/C filter plates (Perkin Elmer, Shelton, Conn.), presoaked in 0.5% polyethylenimine using a 96-well tissue harvester (Perkin Elmer, Shelton, Conn.) followed by performing three filtration washes with 500 μl of ice-cold binding buffer. Filter plates were subsequently dried at 50° C. for 2-3 hours. BetaScint scintillation cocktail (Perkin Elmer, Shelton, Conn.) was added (50 μl/well), and plates were counted using a Packard Top-Count for 1 min/well. The data were analyzed using the one-site competition curve fitting functions in GraphPad PRISM™ v. 3.0 or higher (San Diego, Calif.), or an in-house function for one-site competition curve-fitting.
as §1

μ-opioid receptors [5] = biological target: T1, μ-opioid receptors; experiment: μ-opioid receptor [35S]GTPγS functional assay, U-2 OS cells; format: biochemical; conditions: μ GTP
κ opioid receptor [6] = biological target: T2, κ opioid receptor; experiment: κ-opioid receptor [35S]GTPγS functional assay, U-2 OS cells; format: biochemical; conditions: κ GTP; for EC50: read-out: Activity Response κ EC50 (nM) [mean ± SEM]; for Emax: relative to U69,593, read-out: Activity Response κ Emax (%)

Row | Compound | EC50 (μ-opioid receptors [1]) | Emax (μ-opioid receptors [1]) | EC50 (κ opioid receptor [2]) | Emax (κ opioid receptor [2]) | Ki [3] | Ki (μ-opioid receptors [4]) | EC50 (μ-opioid receptors [5]; read-out: Activity Response μ EC50 (nM) [mean ± SEM]) | Emax (μ-opioid receptors [5]; relative to DAMGO, read-out: Activity Response μ Emax (%)) | EC50 (κ opioid receptor [6]) | Emax (κ opioid receptor [6])
1 | CCOC(=O)C[C@H]1C[C@@]2(O)[C@H]3Cc4ccc(OC)cc4[C@@]2(CCN3CC2CC2)CC1=O [Compound 1, ethyl 2-((4bR,7R,8aS,9R)-11-(cyclopropylmethyl)-8a-hydroxy-3-methoxy-6-oxo-6,7,8,8a,9,10-hexahydro-5H-9,4b-(epiminoethano)phenanthren-7-yl)acetate] | 3400 ± 584 nM | 59.3 ± 3.38% | 5110 ± 1260 nM | 72 ± 3.21% | 408 ± 34.1 nM |  |  |  |  | 
2 | COc1ccc2c(c1)[C@]13CCN(CC4CC4)[C@H](C2)[C@]1(O)C[C@H](CC(=O)O)C(=O)C3 [Compound 8, 2-((4bR,7R,8aS,9R)-11-(cyclopropylmethyl)-8a-hydroxy-3-methoxy-6-oxo-6,7,8,8a,9,10-hexahydro-5H-9,4b-(epiminoethano)phenanthren-7-yl)acetic acid] | 703 ± 72 nM | 59.7 ± 8.69% | 4440 ± 679 nM | 66.7 ± 6.84% | 261 ± 97.3 nM |  |  |  |  | 
3 | O=C(O)C[C@H]1C[C@@]2(O)[C@H]3Cc4ccc(O)cc4[C@@]2(CCN3CC2CC2)CC1=O [Compound 9, 2-((4bR,7R,8aS,9R)-11-(cyclopropylmethyl)-3,8a-dihydroxy-6-oxo-6,7,8,8a,9,10-hexahydro-5H-9,4b-(epiminoethano)phenanthren-7-yl)acetic acid] | > 200000 nM | -1% | 17.3 ± 3.73 nM | 40.8 ± 1.93% | 0.97 ± 0.19 nM | 6.18 ± 0.76 nM |  |  |  | 
4 | C[C@H](NC(=O)C[C@H]1C[C@@]2(O)[C@H]3Cc4ccc(O)cc4[C@@]2(CCN3CC2CC2)CC1=O)C(=O)O [Compound 15, (S)-2-(2-((4bR,7R,8aS,9R)-11-(cyclopropylmethyl)-3,8a-dihydroxy-6-oxo-6,7,8,8a,9,10-hexahydro-5H-9,4b-(epiminoethano)phenanthren-7-yl)acetamido)propanoic acid] | 43.8 ± 14.7 nM | 36.2 ± 3.75% | 221 ± 59.4 nM | 36 ± 2% | 191 ± 45.8 nM |  |  |  |  | 
5 | O=C1C[C@]23CCN(CC4CC4)[C@H](Cc4ccc(O)cc42)[C@]3(O)C[C@@H]1CC(=O)N1CCC[C@H]1C(=O)O [Compound 17, (S)-1-(2-((4bR,7R,8aS,9R)-11-(cyclopropylmethyl)-3,8a-dihydroxy-6-oxo-6,7,8,8a,9,10-hexahydro-5H-9,4b-(epiminoethano)phenanthren-7-yl)acetyl)pyrrolidine-2-carboxylic acid] | > 200000 nM | 0% | > 200000 nM |  | 128 ± 18.1 nM |  |  |  |  | 
6 | CC(C)C[C@H](NC(=O)C[C@H]1C[C@@]2(O)[C@H]3Cc4ccc(O)cc4[C@@]2(CCN3CC2CC2)CC1=O)C(=O)O [Compound 19, (S)-2-(2-((4bR,7R,8aS,9R)-11-(cyclopropylmethyl)-3,8a-dihydroxy-6-oxo-6,7,8,8a,9,10-hexahydro-5H-9,4b-(epiminoethano)phenanthren-7-yl)acetamido)-4-methylpentanoic acid] | 49.7 ± 7.48 nM | 37.5 ± 3.93% | 201 ± 25.9 nM | 41.3 ± 2.85% | 146 ± 29.7 nM |  |  |  |  | 
7 | COc1ccc2c(c1)[C@]13CCN(CC4CC4)[C@H](C2)[C@]1(O)C[C@H](CCO)C(=O)C3 [Compound 46, (4bR,7S,8aS,9R)-11-(cyclopropylmethyl)-8a-hydroxy-7-(2-hydroxyethyl)-3-methoxy-8,8a,9,10-tetrahydro-5H-9,4b-(epiminoethano)phenanthren-6(7H)-one] |  |  |  |  | 394 ± 85.2 nM | 591 ± 80.3 nM | 409 ± 88.5 nM | 68.7 ± 4.1% | 1020 ± 110 nM | 109 ± 4.84%
8 | COCC[C@H]1C[C@@]2(O)[C@H]3Cc4ccc(OC)cc4[C@@]2(CCN3CC2CC2)CC1=O [Compound 49, (4bR,7S,8aS,9R)-11-(cyclopropylmethyl)-8a-hydroxy-3-methoxy-7-(2-methoxyethyl)-8,8a,9,10-tetrahydro-5H-9,4b-(epiminoethano)phenanthren-6(7H)-one] |  |  |  |  | 324 ± 48 nM | 1960 ± 638 nM |  |  | 1280 ± 160 nM | 108 ± 5.57%
